Reference: PMC10401570, “Programmable Monodisperse Glyco-Multivalency Using Self-Assembled Coordination Cages as Scaffolds” (ACS Applied Materials & Interfaces, 2023)

Target: Jacalin (Artocarpus integer, UniProt P18670)
Test: competition turbidimetry: free galactose blocks lectin aggregation by galactose cage Co4Gal ([…] against Co8Gal)
Format: binding

Chain of Jacalin (P18670 whole entry): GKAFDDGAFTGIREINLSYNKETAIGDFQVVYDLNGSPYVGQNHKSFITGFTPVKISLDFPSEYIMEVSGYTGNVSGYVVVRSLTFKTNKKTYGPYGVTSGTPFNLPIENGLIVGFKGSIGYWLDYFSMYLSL
Chain of Jacalin (P18671 whole entry partner): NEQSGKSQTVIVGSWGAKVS

Question: For `OC[C@H]1OC(O)[C@H](O)[C@@H](O)[C@H]1O` (stereo partly drawn) [D-galactose], which IC50 is on record?
Answer: 30 mM
